Test results reported in patent US20230151025A1, “SUBSTITUTED THIAZOLOPYRIDINES, SALTS THEREOF AND THEIR USE AS HERBICIDALLY ACTIVE SUBSTANCES” (Bayer Aktiengesellschaft, priority 2020, published 2023).

What was measured:
Type in all cases: in vivo
Stellaria media (STEME) = assay: Herbicidal post-emergence action (B), 1280 g/ha
In short: (§1)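 Post-emergence greenhouse test: weeds in sandy loam treated at the one-leaf stage, 2 to 3 weeks after sowing, with WP or EC formulations plus 0.5% additive at 600 l/ha water. Visual activity versus untreated controls after about 3 weeks (100% = dead, 0% = like control).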

Setaria viridis (SETVI) [1] = assay: Herbicidal post-emergence action (B), 1280 g/ha; settings: rated visually after about 3 weeks vs untreated controls
In short: as §1

[2] = test system: Kochia scoparia (KCHSC; Bassia scoparia); assay: Herbicidal post-emergence action (B), 1280 g/ha
In short: as §1

[3] = test system: Amaranthus retroflexus (AMARE); assay: Herbicidal post-emergence action (B), 1280 g/ha; settings: rated visually after about 3 weeks vs untreated controls
In short: as §1

Poa annua (POAAN) = assay: Herbicidal post-emergence action (B), 1280 g/ha; settings: rated visually after about 3 weeks vs untreated controls
In short: as §1

[4] = test system: Alopecurus myosuroides (ALOMY); assay: Herbicidal post-emergence action (B), 1280 g/ha; settings: rated visually after about 3 weeks vs untreated controls
In short: as §1

[5] = test system: Echinochloa crus-galli (ECHCG); assay: Herbicidal post-emergence action (B), 1280 g/ha; settings: rated visually after about 3 weeks vs untreated controls
In short: as §1

[6] = test system: Digitaria sanguinalis (DIGSA); assay: Herbicidal post-emergence action (B), 1280 g/ha; settings: rated visually after about 3 weeks vs untreated controls
In short: as §1

[7] = test system: Abutilon theophrasti (ABUTH); assay: Herbicidal post-emergence action (B), 1280 g/ha; settings: rated visually after about 3 weeks vs untreated controls
In short: as §1

Veronica persica (VERPE) [8] = assay: Herbicidal post-emergence action (B), 1280 g/ha
In short: as §1

Setaria viridis (SETVI) [9] = assay: Herbicidal pre-emergence action (C), 320 g/ha; settings: ca. 3 weeks
In short: (§2)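 Sandy loam pots, seeds covered with soil → WP/EC compound sprayed on soil surface (aq., +0.5% additive, 600 l/ha) → greenhouse, optimum growth → visual herbicidal effect (%) at ca. 3 wk vs untreated.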

[10] = test system: Amaranthus retroflexus (AMARE); assay: Herbicidal pre-emergence action (C), 320 g/ha; settings: ca. 3 weeks
In short: as §2

Lolium rigidum (LOLRI) = assay: Herbicidal pre-emergence action (C), 320 g/ha; settings: ca. 3 weeks
In short: as §2

[11] = test system: Alopecurus myosuroides (ALOMY); assay: Herbicidal pre-emergence action (C), 320 g/ha; settings: ca. 3 weeks
In short: as §2

[12] = test system: Echinochloa crus-galli (ECHCG); assay: Herbicidal pre-emergence action (C), 320 g/ha; settings: ca. 3 weeks
In short: as §2

Veronica persica (VERPE) [13] = assay: Herbicidal pre-emergence action (C), 320 g/ha; settings: ca. 3 weeks
In short: as §2

[14] = test system: Alopecurus myosuroides (ALOMY); assay: Herbicidal post-emergence action (D), 320 g/ha; settings: ca. 3 weeks
In short: (§3)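 Post-emergence greenhouse spray of WP or EC formulations plus 0.5% additive at 600 l water/ha onto single-leaf-stage plants, 2–3 weeks after sowing in sandy loam. About 3 weeks later, effect was rated visually against untreated controls as % herbicidal effect, where 0% means like control and 100% means plants dead.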

[15] = test system: Echinochloa crus-galli (ECHCG); assay: Herbicidal post-emergence action (D), 320 g/ha; settings: ca. 3 weeks
In short: as §3

Veronica persica (VERPE) [16] = assay: Herbicidal post-emergence action (D), 320 g/ha; settings: ca. 3 weeks
In short: as §3

[17] = test system: Amaranthus retroflexus (AMARE); assay: Herbicidal post-emergence action (D), 320 g/ha; settings: ca. 3 weeks
In short: as §3

[18] = test system: Polygonum convolvulus (POLCO); assay: Herbicidal post-emergence action (D), 320 g/ha; settings: ca. 3 weeks
In short: as §3

| Structure (SMILES) | herbicidal effect STEME (Stellaria media (STEME)) [%] | herbicidal activity SETVI (Setaria viridis (SETVI) [1]) [%] | herbicidal effect KCHSC [2] [%] | herbicidal activity AMARE [3] [%] | herbicidal activity POAAN (Poa annua (POAAN)) [%] | herbicidal activity ALOMY [4] [%] | herbicidal activity ECHCG [5] [%] | herbicidal activity DIGSA [6] [%] | herbicidal activity ABUTH [7] [%] | herbicidal effect VERPE (Veronica persica (VERPE) [8]) [%] | herbicidal effect SETVI (Setaria viridis (SETVI) [9]) [%] | herbicidal effect AMARE [10] [%] | herbicidal effect LOLRI (Lolium rigidum (LOLRI)) [%] | herbicidal effect ALOMY [11] [%] | herbicidal effect ECHCG [12] [%] | herbicidal effect VERPE (Veronica persica (VERPE) [13]) [%] | herbicidal effect ALOMY [14] [%] | herbicidal effect ECHCG [15] [%] | herbicidal effect VERPE (Veronica persica (VERPE) [16]) [%] | herbicidal effect AMARE [17] [%] | further results |
| --- | --- | --- | --- | --- | --- | --- | --- | --- | --- | --- | --- | --- | --- | --- | --- | --- | --- | --- | --- | --- | --- |
| COc1ccccc1-c1nc2ncsc2cc1C [Example I-124] | 100 | 90 | 100 | 90 | 100 | 100 | 90 | 100 | 100 | 100 | 100 | 90 | 100 | 100 | 100 | 90 | 90 | 80 | 90 |  |  |
| Cc1cc2scnc2nc1-c1cccc(F)c1 [Example I-003, 5-(3-fluorophenyl)-6-methyl-thiazolo[4,5-b]pyridine] | 100 | 90 | 90 | 100 | 100 | 100 | 100 | 90 |  | 90 | 100 | 80 | 100 | 100 | 100 | 90 | 90 |  | 90 | 80 |  |
| Fc1ccccc1-c1nc2ncsc2cc1C1CC1 [Example I-102] | 100 | 100 | 100 | 100 | 90 | 100 | 100 | 100 |  | 100 | 100 | 90 | 100 | 90 | 100 | 80 |  |  | 80 | 80 | herbicidal effect POLCO [18]: 80% |
| Cc1cc2scnc2nc1-c1ccc(F)cc1F [Example I-122] | 100 | 90 | 100 | 100 | 100 | 100 | 90 | 100 | 90 | 100 | 100 | 90 | 100 | 100 | 100 | 90 | 90 | 80 | 90 | 80 | herbicidal effect POLCO [18]: 90% |
| CCc1cc2scnc2nc1-c1cccc(F)c1 [Example I-029] | 100 | 100 | 100 | 100 | 100 | 100 | 100 | 100 | 100 | 90 | 100 | 90 | 100 | 100 | 100 | 90 | 90 | 90 | 90 |  | herbicidal effect POLCO [18]: 90% |
